# Columns and labels:
# [1] = Stability in high pH metalworking fluid use dilutions (HPLC); type: physicochemical; settings: for % MIT Remaining: 25° C.
# Description: Stability studies were conducted in three high pH metalworking fluid use dilutions to compare the persistence of MIT biocide versus CMIT biocide, tested alone and in combination with MCC). Aliquots of the use-diluted fluids were dosed with 17.5 ppm active CMIT/MIT and CMIT/MIT/MCC and stored at 25° C. Biocide concentrations were determined at time zero and weekly using high performance liquid chromatography (HPLC) analysis.
# bacteria and fungi = test: MIC pH 9.0 versus pH 7.1, all nine organisms; type: cell-based; settings: over the nine organisms tested
# Description: Minimum inhibitory concentration (MIC) studies were conducted to determine the lowest level of biocide required to inhibit growth of bacteria and fungi. Tests were conducted in 96-well microtiter plates. Biocides were added to growth media in the plates and serially diluted to obtain a range of concentrations. Tests were conducted in one-half strength trypticase soy broth (TSB; adjusted to pH 7.1 or pH 9.0). Bacteria and fungi were added to samples at 10^6 colony forming units per ml and incubated at 30° C. for three days. MIC values were determined visually on a growth no-growth basis.
# Fungi = test: MIC, average over fungi; type: cell-based
# Description: (§1) Minimum inhibitory concentration (MIC) studies were conducted to determine the lowest level of biocide required to inhibit growth of bacteria and fungi. Tests were conducted in 96-well microtiter plates. Biocides were added to growth media in the plates and serially diluted to obtain a range of concentrations. Bacterial tests were conducted in trypticase soy broth (TSB; pH 7) using an overnight inoculum added at 10^6 colony forming units per ml. […] Fungal tests were conducted in malt extract broth (MEB; pH 4.7) using an 5-7 day inoculum added at 10^4 colony forming units per ml.
# Candida albicans = test: MIC, fungi, MEB pH 4.7; type: cell-based; settings: 168 h
# Description: as §1
# Acremonium strictum = test: MIC, fungi, MEB pH 4.7; type: cell-based; settings: Sarocladium strictum, 168 h
# Description: as §1
# Trichosporon sp. = test: MIC, fungi, MEB pH 4.7; type: cell-based; settings: 168 h
# Description: as §1
# Rhodotorula rubra = test: MIC, fungi, MEB pH 4.7; type: cell-based; settings: 168 h
# Description: as §1
# Field Isolate (fungi) = test: MIC, fungi, MEB pH 4.7; type: cell-based; settings: 168 h, MEB pH 4.7, 25° C., 7 days
# Description: as §1
# Geotrichum candidum = test: MIC, fungi, MEB pH 4.7; type: cell-based; settings: 168 h
# Description: as §1
# Fusarium sp. = test: MIC, fungi, MEB pH 4.7; type: cell-based; settings: 168 h, MEB pH 4.7, 25° C., 7 days
# Description: as §1
# Fusarium solani = test: MIC, fungi, MEB pH 4.7; type: cell-based; settings: 168 h
# Description: as §1
# Pseudomonas putida = test: MIC, bacteria, TSB pH 7; type: cell-based; settings: 48 h
# Description: as §1
# Pseudomonas fluorescens = test: MIC, bacteria, TSB pH 7; type: cell-based; settings: 48 h, TSB pH 7, 25° C., two days
# Description: as §1
# Citrobacter freundii = test: MIC, bacteria, TSB pH 7; type: cell-based; settings: 48 h, TSB pH 7, 25° C., two days
# Description: as §1
# Enterobacter cloacae = test: MIC, bacteria, TSB pH 7; type: cell-based; settings: 48 h
# Description: as §1
# Alcaligenes faecalis = test: MIC, bacteria, TSB pH 7; type: cell-based; settings: 48 h
# Description: as §1
# Pseudomonas oleovorans = test: MIC, bacteria, TSB pH 7; type: cell-based
# Description: as §1
# Escherichia coli = test: MIC, bacteria, TSB pH 7; type: cell-based; settings: 48 h
# Description: as §1
# Enterobacter aerogenes = test: MIC, bacteria, TSB pH 7; type: cell-based; settings: Klebsiella aerogenes, 48 h
# Description: as §1
# Klebsiella pneumoniae = test: MIC, bacteria, TSB pH 7; type: cell-based; settings: 48 h
# Description: as §1
# Proteus mirabilis = test: MIC, bacteria, TSB pH 7; type: cell-based; settings: 48 h
# Description: as §1
# Pseudomonas aeruginosa = test: MIC, bacteria, TSB pH 7; type: cell-based; settings: 48 h, TSB pH 7, 25° C., two days
# Description: as §1
# Shewanella putrefaciens = test: MIC, bacteria, TSB pH 7; type: cell-based; settings: 48 h
# Description: as §1
# Bacteria = test: MIC, average over bacteria; type: cell-based
# Description: as §1
smiles,measurement,setting,value
"Cn1sccc1=O [MI, 2-methyl-4-isothiazolin-3-one]",% MIT Remaining,"[1]; Soluble Fluid 1 (pH 9.2), 2 wk",95%
same,% MIT Remaining,"[1]; Soluble Fluid 1 (pH 9.2), 4 wk",100%
same,% MIT Remaining,"[1]; Soluble Fluid 3 (pH 9.3), 2 wk",95%
same,% MIT Remaining,"[1]; Soluble Fluid 3 (pH 9.3), 4 wk",100%
same,% MIT Remaining,"[1]; Synthetic Fluid 2 (pH 9.4), 1 wk",92%
same,% MIT Remaining,"[1]; Synthetic Fluid 2 (pH 9.4), 3 wk",94%
same,biocide active retained,[1]; after 3-4 weeks in all three high pH use-diluted fluids,greater than 90%
same,change of MIC at pH 9.0 versus pH 7.1,bacteria and fungi,≤ 2 ×
same,MI: CMI + MI MIC Ratio,"Fungi; fungi, ratio of average MICs",46.8
same,MIC,"Fungi; read-out: MIC, Average",63 µg/mL
same,MIC,Candida albicans,100 µg/mL
same,MIC,Acremonium strictum,16 µg/mL
same,MIC,Trichosporon sp.,63 µg/mL
same,MIC,Rhodotorula rubra,125 µg/mL
same,MIC,Field Isolate (fungi); first listed,8 µg/mL
same,MIC,Field Isolate (fungi); second listed,21 µg/mL
same,MIC,Field Isolate (fungi); third listed,6 µg/mL
same,MIC,Geotrichum candidum,250 µg/mL
same,MIC,Fusarium sp.,25 µg/mL
same,MIC,Fusarium solani,13 µg/mL
same,MIC,Pseudomonas putida,13 µg/mL
same,MIC,Pseudomonas fluorescens; first listed,31 µg/mL
same,MIC,Pseudomonas fluorescens; second listed,16 µg/mL
same,MIC,Citrobacter freundii; first listed,25 µg/mL
same,MIC,Citrobacter freundii; second listed,41 µg/mL
same,MIC,Enterobacter cloacae,25 µg/mL
same,MIC,Alcaligenes faecalis,28 µg/mL
same,MIC,"Pseudomonas oleovorans; Ectopseudomonas oleovorans, 48 h, pH 7",6 µg/mL
same,MIC,"Pseudomonas oleovorans; Pseudomonas oleovorans, second listed, TSB pH 7, 25° C., two days",6 ppm
same,MIC,Escherichia coli,31 µg/mL
same,MIC,Enterobacter aerogenes,82 µg/mL
same,MIC,Klebsiella pneumoniae,12 µg/mL
same,MIC,Proteus mirabilis,21 µg/mL
same,MIC,Pseudomonas aeruginosa; first listed,15 µg/mL
same,MIC,Pseudomonas aeruginosa; second listed,25 µg/mL
same,MIC,Shewanella putrefaciens,13 µg/mL
same,MIC,Bacteria; average over the bacteria tested,24 µg/mL
same,MI: CMI + MI MIC Ratio,"Bacteria; bacteria, ratio of average MICs",10.9
